Key:
[1] = test system: hot-plate assay in mouses; experiment: hot-plate assay in mice; assay type: in vivo, Swiss albino mice; conditions: ip, hot plate 55° C., licking of the paws
Method: The analgesic activity of the products object of the invention have been studied in several assays using the Swiss albino mice as the experimental animal. The assay of contortions induced by phenylbenzoquinone, the hot-plate assay and the hot-point assay are now described. The examples that are presented by way of illustration describe some of the pharmacological assays and should not limit the scope of the invention in any way.
The hot-plate assay was carried out following the method described by M. Ocana et al. (Europ J. Pharmacol. 186: 377-378, 1990). The product under study was administered s.c. or i.p. and 30 minutes later the analgesic effect was registered. For this the animals were placed on a metallic surface kept at 50° C. or 55° C. and the time registered (latency) until the licked their hind legs and a jump. The analgesic activity was calculated at each dose, comparing the potency of the treated group with the control group. Using the results obtained the ED-50 was calculated.

mouse's tail = experiment: animal or person; assay type: in vivo, Swiss albino mice; conditions: sc

Clc1ccc(C2=CCN(CCCCn3cc(Cl)cn3)CC2)cc1 [Example 47a]
Δ Latency ([1]; 40 mg/kg): 5 s

C1=C(c2ccccc2)CCN(CCCCn2cccc2)C1 [Example 51a]
ED50 (mouse's tail): 5 mg/kg

Brc1ccc(C2=CCN(CCCCn3cncn3)CC2)cc1 [Example 59a]
ED50 (mouse's tail): 60 mg/kg

Clc1ccc(C2=CCN(CCCCn3ccnc3-c3ccccc3)CC2)cc1 [Example 63a]
ED50 (mouse's tail): 70 mg/kg

CC(C)=CCN1CCC2(C)c3cc(O)ccc3CC1C2C (centres unmarked) [Pentazocine, reference compound]
Δ Latency ([1]; 10 mg/kg): 6 s
